In ChEMBL document CHEMBL6074707, “Targeting Cancer: A New Era in Cancer Therapy through Immune Fitness Modulation and KRAS Degradation” (ACS Med Chem Lett, 2024):

What was measured:
[1] = system: Protein cereblon/GTPase KRas (Homo sapiens), P01116+Q96SW2 [G12D]; experiment: PROTAC activity at CRBN/KRAS G12D mutant in human ASPC1 cells assessed as induction of protein degradation incubated for 24 hrs by Western blot analysis relative to control; format: cell-based
[2] = target: Protein cereblon/GTPase KRas (Homo sapiens, UniProt P01116+Q96SW2, G12D); experiment: PROTAC activity at CRBN/KRAS G12D mutant in human ASPC1 cells assessed as induction of protein degradation incubated for 24 hrs by Western blot analysis; format: cell-based
Protein cereblon/GTPase KRas, sequence (P01116 whole entry G12D, stated change not applied): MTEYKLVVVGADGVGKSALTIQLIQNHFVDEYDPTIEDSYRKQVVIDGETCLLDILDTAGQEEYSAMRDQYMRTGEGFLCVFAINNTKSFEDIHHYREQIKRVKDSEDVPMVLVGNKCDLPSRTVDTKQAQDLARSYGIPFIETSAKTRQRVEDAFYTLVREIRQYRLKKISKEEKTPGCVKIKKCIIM
Protein cereblon/GTPase KRas, sequence (Q96SW2 whole entry, stated change not applied): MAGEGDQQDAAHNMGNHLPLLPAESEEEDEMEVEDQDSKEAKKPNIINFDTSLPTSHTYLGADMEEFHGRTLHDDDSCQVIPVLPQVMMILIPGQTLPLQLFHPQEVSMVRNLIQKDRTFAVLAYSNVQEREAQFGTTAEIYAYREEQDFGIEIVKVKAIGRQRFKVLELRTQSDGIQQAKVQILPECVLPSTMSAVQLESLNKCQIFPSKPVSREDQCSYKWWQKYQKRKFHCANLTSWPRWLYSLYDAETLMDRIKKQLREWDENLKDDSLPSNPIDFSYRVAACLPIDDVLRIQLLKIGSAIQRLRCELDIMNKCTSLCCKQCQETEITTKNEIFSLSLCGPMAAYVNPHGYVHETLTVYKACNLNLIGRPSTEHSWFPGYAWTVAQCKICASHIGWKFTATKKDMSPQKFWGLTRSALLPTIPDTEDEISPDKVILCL

Protein cereblon/GTPase KRas (Homo sapiens), P01116+Q96SW2 [G12D], sequence (P01116 whole entry G12D): as the sequence (P01116 whole entry G12D, stated change not applied) above
Protein cereblon/GTPase KRas (Homo sapiens), P01116+Q96SW2 [G12D], sequence (Q96SW2 whole entry partner): as the sequence (Q96SW2 whole entry, stated change not applied) above

SMILES	Emax [1]	DC50 [2]
C#Cc1c(F)ccc2cc(O)cc(-c3ncc4c(N5C[C@H]6CC[C@@H](C5)N6)nc(OCCN5CCC(CC6(F)CCN(CC7CCN(c8ccc9c(c8)CN(C8CCC(=O)NC8=O)C9=O)CC7)CC6)CC5)nc4c3F)c12 (some centres undefined)	25%	> 1000 nM
C#Cc1c(F)ccc2cc(O)cc(-c3ncc4c(N5C[C@H]6CC[C@@H](C5)N6)nc(OCCN5CCC(CN6CCC7(CC6)CCN(c6ccc8c(c6)CN(C6CCC(=O)NC6=O)C8=O)CC7)CC5)nc4c3F)c12 (some centres undefined)	> 70%	≤ 100 nM
C#Cc1c(F)ccc2cc(O)cc(-c3ncc4c(N5C[C@H]6CC[C@@H](C5)N6)nc(OC[C@@H]5C[C@@H](OC6CCN(CC7CCN(c8ccc9c(c8)n(C)c(=O)n9C8CCC(=O)NC8=O)CC7)CC6)CN5C)nc4c3F)c12 (some centres undefined)	> 70%	≤ 100 nM
C#Cc1c(F)ccc2cc(O)cc(-c3ncc4c(N5C[C@H]6CC[C@@H](C5)N6)nc(OCCN5CCC(CN6CCC7(CC6)CCN(c6ccc8c(c6F)CN(C6CCC(=O)NC6=O)C8=O)CC7)CC5)nc4c3F)c12 (some centres undefined)	> 70%	≤ 100 nM
C#Cc1c(F)ccc2cc(O)cc(-c3ncc4c(N5C[C@H]6CC[C@@H](C5)N6)nc(OCCN5CCC(CC6CCN(CC7CCN(c8ccc9c(c8)CN(C8CCC(=O)NC8=O)C9=O)CC7)CC6)CC5)nc4c3F)c12 (some centres undefined)	> 70%	≤ 100 nM
C#Cc1c(F)ccc2cc(O)cc(-c3ncc4c(N5C[C@H]6CC[C@@H](C5)N6)nc(OCCN5CCC(CC6CCN(CC7CCN(c8ccc9c(c8)n(C)c(=O)n9C8CCC(=O)NC8=O)CC7)CC6)CC5)nc4c3F)c12 (some centres undefined)	> 70%	≤ 100 nM
C#Cc1c(F)ccc2cc(O)cc(-c3ncc4c(N5C[C@H]6CC[C@@H](C5)N6)nc(OCCN5CCC(CC6CCN(CC7CCN(c8ccc9c(c8F)CN(C8CCC(=O)NC8=O)C9=O)CC7)CC6)CC5)nc4c3F)c12 (some centres undefined)	> 70%	≤ 100 nM
C#Cc1c(F)ccc2cc(O)cc(-c3ncc4c(N5CC6CCC(C5)N6)nc(OC[C@]56CCCN5[C@H](CN5CCN(CC7CCN(c8ccc9c(c8)CN(C8CCC(=O)NC8=O)C9=O)CC7)CC5)CC6)nc4c3F)c12 (some centres undefined)	> 70%	≤ 100 nM
C#Cc1c(F)ccc2cc(O)cc(-c3ncc4c(N5C[C@H]6CC[C@@H](C5)N6)nc(OCCN5CCC6(CC5)CCN(CC5CCN(c7ccc8c(c7)CN(C7CCC(=O)NC7=O)C8=O)CC5)CC6)nc4c3F)c12 (some centres undefined)	> 70%	≤ 100 nM
C#Cc1c(F)ccc2cc(O)cc(-c3ncc4c(N5C[C@H]6CC[C@@H](C5)N6)nc(OCCN5CCC(CN6CC7(CCN(c8ccc9c(c8)CN(C8CCC(=O)NC8=O)C9=O)CC7)C6)CC5)nc4c3F)c12 (some centres undefined)	> 70%	≤ 100 nM
C#Cc1c(F)ccc2cc(O)cc(-c3ncc4c(N5C[C@H]6CC[C@@H](C5)N6)nc(OCCN5CCC(C(F)(F)C6CCN(CC7CCN(c8ccc9c(c8F)CN(C8CCC(=O)NC8=O)C9=O)CC7)CC6)CC5)nc4c3F)c12 (some centres undefined)	> 70%	≤ 100 nM
C#Cc1c(F)ccc2cc(O)cc(-c3ncc4c(N5C[C@H]6CC[C@@H](C5)N6)nc(OC[C@@H]5C[C@@H](OC6CCN(c7ccc8c(c7F)CN(C7CCC(=O)NC7=O)C8=O)CC6)CN5C)nc4c3F)c12 (some centres undefined)	> 70%	≤ 100 nM
